The structures appear in SMILES notation.

This data set in a line: in vitro. As to conditions: human, hela cells, % viability.
A word on the viability: it is a read-out of living cells in per cent, often relative to untreated cells. With `COc1ccc(OCCNC(=O)c2ccc(-c3ccccc3C)nc2N2CCN(C(=O)c3ccco3)CC2)cc1` [CBK076207], the viability at 28.5 h, 10 µM was 85.6%.
With `CN1C(=O)C(CCNc2ccccc2)S/C1=N/C1CC2C=CC1C2` (centres unmarked) [CBK073812] the figure was 114%; with `Cc1ccc(C)n1C1CC(C)(C)NC(C)(C)C1` [CBK019116], 91.1%; with `Cc1noc(C)c1S(=O)(=O)Nc1c(C(=O)O)sc2ncccc12` [CBK049988], 99.5%.
The result for `CCn1cc(C(=O)O)c(=O)c2cc(F)c(N3CCN(C(=O)c4ccc(C)cc4)CC3)cc21` [CBK286986] reads 99.6%; that for `Cc1ccc(N2C(=O)CSC23C(=O)Nc2ccc(Br)cc23)cc1` (centres unmarked) [CBK093453], 84.4%.
With `Cc1nc(C)c(C(=O)N2CCc3[nH]c4ccccc4c3C2)o1` [CBK281873] the figure was 110%; with `COc1cc(-c2nc(-c3ccc(Cl)cc3)c(-c3ccccc3)[nH]2)c([N+](=O)[O-])cc1OC` [CBK264503], 98.9%.
On to `Cc1cc(C)cc(C(=O)N2CCC(NC(=O)c3cnn(C)c3)CC2)c1` [CBK305723], for which the viability at 28.5 h, 10 µM came out at 92.3%.
With `Cc1cc(I)ccc1NCC(=O)NN` [CBK261738] the figure was 91.1%.
For the compound `CS(=O)(=O)N[C@H]1C[C@H]2C(=O)Nc3cc(Cl)ccc3C(=O)N2C1` [CBK289363], the viability at 28.5 h, 10 µM is 89%.
With `CN1CC[C@@]2(c3cc(F)cc(F)c3)CCC(=O)CC12` (some centres unmarked) [CBK002500], the viability at 28.5 h, 10 µM was determined as 110%.
With `COc1ccc2c(c1)C1(CC(=O)N(CCC3CCCCC3)C1=O)C(=O)N2C` (centres unmarked) [CBK075147] the figure was 120%; with `COc1ccc(OC)c(C(=O)c2coc3ccc(OCC(=O)O)cc23)c1` [CBK111288], 91.8%; with `O=C1NC2(CCC(=O)N(Cc3ccccc3)CC2)Oc2ccccc21` (centres unmarked) [CBK284438], 91.6%.
For the compound `Cc1nc2ccc(Br)cc2c(=O)n1Cc1cccs1` [CBK085890], the viability at 28.5 h, 10 µM is 89.7%.
With `COc1ccc(-c2nc3cc(NC(=O)c4ccccc4Br)ccc3o2)cc1` [CBK264953] the figure was 95.5%.
With `COc1ccc(N2CCN(CC(O)c3c[nH]c4cc(OC)ccc34)CC2)cc1` (centres unmarked) [CBK286355] the figure was 96.1%; with `COc1nccnc1OC1CCN(Cc2ccccc2-c2ccccc2)CC1` [CBK084246], 87.7%.
With `Cc1sc(NC(=O)CN(Cc2cnn(C)c2)C(C)C)c(C#N)c1C` [CBK306303] the figure was 93.1%.
As for `O=C(O)CCNC(=O)c1ccc(C#CC2(O)CCCCC2)cc1` [CBK286554], the viability at 28.5 h, 10 µM came out at 93.2%.
Take `CCCc1[nH]nc(O)c1CCc1c(F)cccc1Cl` [CBK081121]: the viability at 28.5 h, 10 µM turned out to be 93.8%.
The result for `O=C(Nc1cccc(CCc2ccccn2)c1)Nc1cccc2ccccc12` [CBK262337] reads 87.7%; that for `Cc1oc(-c2ccccc2)nc1C(=O)O` [CBK047490], 98.4%.
The result for `CC(C)[C@@H](CO)Nc1nccnc1-c1ccc(CN)cc1` [CBK036640] reads 104%.
With `COc1ccc(C2CCN(Cc3cccnc3)CC2)cc1` [CBK283564] the figure was 96.1%.
In the case of `CC(C)S(=O)(=O)n1c(=O)n(CC(=O)c2csc3ccccc23)c2ccccc21` [CBK106559], the viability at 28.5 h, 10 µM is 99.8%.
`COc1ccc(S(=O)(=O)N(C)CC(=O)Nc2ccc(C(N)=O)cc2)cc1Cl` [CBK267891]: the viability at 28.5 h, 10 µM amounted to 109%.
The result for `CC(=O)C1=C(O)C(=O)N(CCCC(=O)O)C1c1cccc([N+](=O)[O-])c1` (centres unmarked) [CBK263801] reads 103%.
The result for `COC1C(O)C(CO)OC1n1cnc2c(=O)[nH]c(N)nc21` (centres unmarked) [CBK201324] reads 96.2%; that for `Cc1ccc(C(=O)O)cc1NC(=S)NC1CC1` [CBK288397], 94.4%.
The result for `O=C(C[S+]([O-])c1nc2ccccc2[nH]1)N1CCOCC1` (centres unmarked) [CBK016397] reads 98.1%; that for `COc1ccccc1CN(CC(C)(C)CN)C(=O)NC1C[C@H]1c1ccccc1` (some centres unmarked) [CBK002424C], 89.6%; that for `NC(=O)CCN1CCCC2(CCN(C(=O)Cc3c[nH]c4ccccc34)C2)C1` (centres unmarked) [CBK132041], 106%.
As for `Cc1ccc2n1CCN(C(=O)c1cc(-c3ccccn3)n[nH]1)C2C(C)C` (centres unmarked) [CBK282447], the viability at 28.5 h, 10 µM came out at 101%.
With `Cn1ccc(C2CCCCCN2C(=O)Cc2cccs2)n1` (centres unmarked) [CBK283047] the figure was 86.5%; with `CCc1nn(CC(=O)N2CCCCC2)c(=O)c2cc3ccsc3n12` [CBK284119], 85.7%; with `Cc1ccn2cc(-c3ccc4c(c3)CC(C)N4S(C)(=O)=O)cc2c1` (centres unmarked) [CBK285253], 89%.
With `CC(=O)NCCSc1cc(N2CCCC2)ncn1` [CBK105621] the figure was 106%; with `COc1ccc(CNC(=O)c2cc(S(=O)(=O)N3CCOCC3)cs2)cc1` [CBK307577], 95.7%.
The result for `CN(C)CCN1CCN(CC2(c3ccc(Cl)cc3)CC2)CC1` [CBK282783] reads 103%; that for `Cc1cc(C)n(C(C)C(=O)NCC2(N(C)C)CCCC2)n1` (centres unmarked) [CBK281713], 107%; that for `Nn1cnn2c(SCc3ccccc3)nnc12` [CBK263188], 112%.
In the case of `Cc1cc(CNS(=O)(=O)c2cccc3nonc23)no1` [CBK062263], the viability at 28.5 h, 10 µM is 106%.
The result for `COc1cc2c(cc1OC)CN(Cc1csc(C)n1)CC2` [CBK126443] reads 93.4%; that for `O=C(c1cscn1)N1CCN(c2ncccn2)CC1` [CBK144506], 87.9%; that for `CCOC(=O)CNC(=O)Nc1cc2ccccc2c(Br)n1` [CBK063279], 92.5%.
With `Cc1nc(CCNC(=O)N2CCC(Oc3cccnc3)CC2)sc1Cl` [CBK306636] the figure was 93.8%.
Turning to `O=C(Cc1nc(-c2ccncc2)n[nH]1)NC1CCCCC1` [CBK288544], the viability at 28.5 h, 10 µM worked out at 110%.
With `Cc1ccc(CN(CC(=O)N2CCC(C(N)=O)CC2)S(=O)(=O)c2ccc(Br)cc2)cc1` [CBK265813], the viability at 28.5 h, 10 µM worked out at 102%.
With `O=C(NC1CC1)C1(Cc2ccccc2-c2cccnc2)CCOCC1` [CBK285222] the figure was 88.7%.
Regarding `CN(C)CCNCCCSc1ccc(Cl)cc1` [CBK267794C], the viability at 28.5 h, 10 µM is 104%.
With `N[C@H]1CCN2C(=O)c3cc(-c4ccc(F)cc4F)ccc3NC(=O)[C@H]12` [CBK289345] the figure was 94.4%.
With `Cc1ccc(NCC2CCN(Cc3cc(=O)n4ccccc4n3)C2)nc1` (centres unmarked) [CBK306334] the figure was 80.7%; with `COC(=O)c1ccc2cccnc2c1O` [CBK017876], 90.9%.
The result for `Nc1nc(CSc2nnc(-c3ccccc3O)n2Cc2ccccc2)cs1` [CBK267394] reads 90.4%; that for `COc1ccc(C(=O)NNS(=O)(=O)N(C)C)cc1OC` [CBK267697], 99.1%.
As to `COc1cccc(C2C(C(=O)c3ccc(Br)cc3)=C(O)C(=O)N2CCCN2CCOCC2)c1` (centres unmarked) [CBK264862], the viability at 28.5 h, 10 µM was 103%.
The result for `COC(=O)c1csc2c1N[C@H](C1CC3C=CC1C3)[C@@H]1CCO[C@H]21` (some centres unmarked) [CBK303251] reads 94.9%.
Turning to `O=C(CSCc1ccc(Br)cc1)Nc1ccc(S(=O)(=O)N2CCOCC2)cc1` [CBK267845], the viability at 28.5 h, 10 µM is 97.1%.
The result for `Cc1cccc(C(C)(C)C)c1NC(=O)N1CCC(Cc2ccccc2)CC1` [CBK043962] reads 112%.
With `O=C(O)COc1ccc(S(=O)(=O)Nc2ccc(F)cc2)cc1` [CBK268442] the figure was 105%; with `O=C(c1ccc(F)cc1)N1C2CCC1CC(O)(c1ccccc1F)C2` (centres unmarked) [CBK121719], 102%; with `CN1CCCc2cc(-c3cncn3CC(=O)NC(C)(C)C)ccc21` [CBK281700], 95%.
With `NS(=O)(=O)c1ccc(CNC2CC(=O)N(CCc3ccccc3)C2=O)cc1` (centres unmarked) [CBK262464] the figure was 91.7%.
On to `CC(C)(O)C#Cc1ccc(C(=O)NC(CSCc2ccccc2)C(=O)O)s1` (centres unmarked) [CBK267705], for which the viability at 28.5 h, 10 µM worked out at 98.4%.
With `O=C(C1CC=CCC1)N1CCCC(c2[nH]ncc2-c2ccncc2)C1` (centres unmarked) [CBK284198], the viability at 28.5 h, 10 µM came to 93.2%.
The result for `COCCOCCCN1CCC2(CC1)NC(=O)Cc1ccc(C)cc12` [CBK040222] reads 109%; that for `NC(=O)c1c(NC(=O)c2ccc(S(=O)(=O)N3CCCC3)cc2)sc2c1CCCC2` [CBK262486], 106%; that for `Cc1ccccc1Cn1c(=O)sc2ccccc21` [CBK025408], 94.9%.
The result for `CC(C)(N)C(=O)N1CC(C(=O)NCCN(Cc2ccccc2)S(C)(=O)=O)C(c2ccccc2)C1` (centres unmarked) [CBK014706T] reads 93.3%.
With `COc1c(Cl)ccc(Cl)c1C(=O)OCC(=O)O` [CBK264596] the figure was 115%.
For `Cc1cc(C)c(OCCOCCN2CCN(C)CC2)c(Cl)c1` [CBK263744G], the viability at 28.5 h, 10 µM stood at 98.6%.
As for `Cc1ccc2nc(NCC(=O)O)nc(-c3ccccc3)c2c1` [CBK287002], the viability at 28.5 h, 10 µM was 84.4%.
`CCOC(=O)c1cccc(-n2cc(-c3ccc(Br)cc3F)nn2)c1` [CBK113153]: the viability at 28.5 h, 10 µM stood at 92.3%.
With `C=CCNC(=O)N1CC[C@H]2CC(=O)N(Cc3ccc4c(c3)OCO4)CC[C@H]2C1` [CBK288794] the figure was 97.8%; with `Cc1oc(C)c(C(=O)Nc2cccc(C(=O)O)c2)c1C(=O)Nc1cccc(C(=O)O)c1` [CBK266472], 108%; with `COc1nccnc1-c1cc2ccccc2s1` [CBK106781], 87.7%.
Take `CC1=CC(C)C(C(=O)O)C(C(=O)Nc2ccccc2)C1` (centres unmarked) [CBK286851]: the viability at 28.5 h, 10 µM was found to be 90.4%.
The result for `COC(=O)c1ccccc1S(=O)(=O)n1c(=O)n(CCc2c[nH]c3ccccc23)c2ccccc21` [CBK106509] reads 87.2%.
